Several values for one entry are separate records, joined by “and”; a condition that tells them apart may be missing. Equal values may be shown once. Entries after “also recorded” stand apart in the source; their conditions may differ.
Assays:
[1] = cited from earlier work
[2] = design: species or system Adult Swiss mice; details: mouse, in vivo
Description: (§1) Adult Swiss mice (BK-1 male 20 g) purchased from Bantin & Kingman, Fremont, Calif., were used. Each batch consisted of 15 mice. Within each batch, five mice were selected randomly to be in the GES, taurine, or control group. A taurine group was included to serve as additional control.
Arterial blood gas sample was collected by puncture of the lower portion of the descending aorta under pentobarbital anesthesia. Analysis was performed on a Corning 168 Blood Gas Analyzer.

[3] = system: adult mice exposed to anoxia; assay: survival of adult mice exposed to anoxia; type: in vivo, Adult Swiss mice; design: mortality, 2.5 minutes of anoxia / protection against 2.5 minutes anoxia: concentration or dose not given beside the values
Description: Adult Swiss mice (BK-1 males, 20 g) purchased from Bantin & Kingman, Fremont, Calif. were used. Each batch consisted of 10 mice. Within each batch five mice were selected randomly as experimental animals and the remaining five as controls. Experimental mice received daily intraperitoneal injections of 0.25 ml of GES (50 mg/ml) for 14 days.
At day 14, all mice within the same batch (5 experimental and 5 each of the […]) were placed in a specially designed chamber (26.5×24.5×21.0 cm). Anoxia/hypoxia was produced by infusion of pure nitrogen gas ([…]) into the chamber for 2.5 or 2.75 minutes. Anoxia/hypoxia was reversed immediately after these intervals by removing the chamber and placing the mice in a room air environment.
The results are shown in FIG. 1 and discussed in detail above.

anaerobic glycolysis = assay: brain lactate after 2.5 min anoxia; type: in vivo, Adult Swiss mice
Description: as §1
Brain lactate levels were determined for mice exposed to 2.5 minutes of anoxia as follows. Animals were exposed to 2.5 minutes of anoxia under pentobarbital anesthesia. Immediately after the exposure, animals were immersed into a liquid nitrogen. The frozen brains were removed by chiseling and extracted as described above. Lactate concentration was determined using the lactate dehydrogenase reaction.

[4] = observation of behavior and respiratory pattern; type: in vivo, Adult Swiss mice; details: mouse, in vivo, ip
Description: as §1

[5] = in vivo; cited from earlier work
[6] = system: brains of newborn rat pups; assay: brain intracellular pH and lactate of rat pups before and after 7.5 min anoxia (in vivo NMR); design: species or system Sprague-Dawley rats
Description: A Nicolet NMR System NT-200 (4.7T) was used for NMR experiments. Mice, rats or pups (Sprague-Dawley) were lightly anesthetized with ketamine hydrochloride, 50 mg/kg I.P., and placed in the NMR probe which contained an oval surface coil (one turn, 8×12 mm diameter) tunable to the resonance frequency of the proton and ^31 P. To eliminate signal contamination, scalp and temporal muscle were retracted. Field homogeneity was maximized by skimming on water proton signals. To produce anoxia, 100% nitrogen gas was rapidly infused (14 l/min) into the probe chamber. Anoxia could be reversed by infusion of air. Calibration studies using an oxygen meter (OM-1 Biological oxygen Meter, Micro-electrodes, Inc.) confirmed that this technique produced complete O2 depletion in the chamber or its reversal within 1 minute. ^1 H spectra were obtained at 199.97 MHz=z using a 1331-.tau.-2662 spin echo sequence with a .tau. delay of 68 ms (spectral width: 2 KHz, memory block: 4K, recycle time 2.7 seconds). The interpulse delay of the Hore sequence was adjusted so that the lactate resonance experienced least attenuation. ^31 P spectra were obtained at 80.99 MHz using a one pulse sequence (spectral width: 6 KHz, memory block: 4K, recycle time 2.7 seconds). The free induction decay (FID) like signals from remaining water proton signals were eliminated by applying sine function […]. The broad resonance with short T2 on ^31 P NMR spectra was removed using the convolution difference technique. Line broadening of 5 Hz and 30 Hz were applied as noise filter for proton and ^31 P spectra, respectively.
These animals were designated to be the experimental group. Physiological saline was administered to the control group of rats. Each group consisted of 10 animals.
On the last day of the administration, i.e. at day 10, the animals were each fixed in a special chamber set within a 4.7 T nuclear magnetic resonance apparatus. […]
The pH level and the lactate concentration in the cerebral cells before and after anoxia were measured by nuclear magnetic resonance spectroscopy using the procedure described above.

Compound: Nc1ncnc2c1ncn2[C@@H]1O[C@H](COP(=O)(O)OP(=O)(O)OP(=O)(O)O)[C@@H](O)[C@H]1O [adenosine triphosphate (ATP), adenosine triphosphate]
- pKa value [1]: 6.95

Compound: NCCS(=O)(=O)O [taurine, 2-amineethanesulfonic acid, reference compound]
- arterial pCO2 [2]: 41.26 ± 5.39 mmHg
- arterial pH [2]: 7.26 ± 0.04
- arterial pO2 [2]: 97.7 ± 12.9 mmHg
- protection against anoxia / survival (in words) [3]: no difference between taurine pretreated animals (column B) and saline pretreated animal
- mortality, 2.5 minutes of anoxia ([3]; 14 days i.p. pretreatment): 40% and 60%
- protection against 2.5 minutes anoxia ([3]; FIG. 1): 40%
- Lactate (anaerobic glycolysis; Table 4, n = 5, post 2.5 min anoxia): 0.48 ± 0.08 mM
- lactate levels post 2.5 min anoxia (in words) (anaerobic glycolysis; among three groups): essentially identical among the three groups
- observable adverse effects in behavior or respiratory pattern [4]: did not show any observable adverse effects
- blood-brain barrier crossing (in words) [5]: does not cross the blood-brain barrier in adult mice; also recorded: does not cross the blood brain barrier freely in the adult mouse; also recorded: does cross the blood-brain barrier in newborns but it has no such effect in the adults
- effect on pH depression in anoxia (in words) [6]: pH depression is considerably prevented
- brain pH after anoxia ([6]; taurine 16 mmol/kg/day i.p., after 7.5 min anoxia): 7.0
- brain pH before anoxia ([6]; taurine 16 mmol/kg/day i.p., day 10): 7.3

Compound: O=S(=O)(O)CCN1CCOCC1 [MES, 2-(N-morpholino) ethane sulfonic acid, reference compound]
- pKa value [1]: 6.1
